In PubChem BioAssay (NCI) one finds TGI and GI50 data, which are given here for 9 molecules.

Common to all, as to test: inhibition of tumour cell growth, NCI panel, 48 h
In assay [1] the test system is SK-MEL-2 melanoma.
The subject of assay [2] is CAKI-1 renal.
In assay [3] the test system is HCC-2998 colon.
The test system of assay [4] is EKVX NSCLC.
For assay [5], the system named is NCI-H460 lung.
Assay [6] deals with OVCAR-4 ovarian.
Assay [7] relates to SF-295 CNS.
For assay [8], the system named is K-562 leukemia.
The test system of assay [9] is SK-MEL-5 melanoma.
In assay [10] the test system is 786-0 renal.

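Tested at 5 concentrations; 48 h exposure; 96-well plates; endpoints linearly interpolated, else capped at highest concentration. The concentration for 50% growth inhibition is given as GI50. TGI is the concentration that stops growth completely.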

As for `COC(=O)N/N=C(/CCN1CCCC1)CC(c1ccccc1)c1c(O)c2ccccc2oc1=O` (stereo unspecified), the TGI in assay [1], in assay [2], in [3], in [4], in [5] and in assay [6] was over 100 µM each time. Also, the TGI in assay [7], in assay [8], in [9] and in assay [10] was over 100 µM in each case.
Consider `CCC(C)OC(=O)C1C2CCC(O2)C1C(=O)O` (stereo unspecified), for which the TGI in [1] is over 100 µM; in [2], over 100 µM; in [3] it was over 100 µM; in [4], over 100 µM; in assay [5], over 55.4 µM; in assay [6], over 100 µM. For the same molecule, the TGI is over 100 µM in assay [7], over 100 µM in assay [8], over 100 µM in assay [9] and over 62.7 µM in assay [10].
Consider `O=C(O)C1NCCc2c1[nH]c1ccccc21` (stereo unspecified), for which the TGI in assay [1], in assay [2], in assay [3], in assay [4], in assay [5] and in [6] was over 100 µM throughout. Moreover, the TGI in [7], in assay [8], in assay [9] and in [10] was over 100 µM throughout. Further, the GI50 in assay [2], in assay [3], in assay [6], in [8], in [9] and in [10] was over 100 µM in each case.
Turning to `CN(C)C(=O)/N=c1\ss/c(=N\C(=S)N(C)C)n1-c1ccccc1`, the TGI was over 100 µM in assay [1]; over 100 µM in assay [2]; over 100 µM in [3]; over 100 µM in assay [4]; over 100 µM in assay [5]; 60.2 µM in assay [6]. In addition, the TGI in assay [7] is over 100 µM; in assay [8], over 56.1 µM; in assay [9], over 100 µM; in [10] it was 47.1 µM. In addition, in assay [2], the GI50 was 2.76 µM.
For `CN(C)CCCN(c1nc(C(Cl)(Cl)Cl)ns1)c1nc(C(Cl)(Cl)Cl)ns1`, the GI50 in assay [1] was 1.84 µM; in assay [2], 4.82 µM; in assay [3], 1.69 µM; in assay [4], 3.32 µM; in assay [5], 1.81 µM; in assay [6] it was 2.21 µM. The GI50 was 1.7 µM in [7], 1.79 µM in assay [8], 1.6 µM in [9] and 1.72 µM in assay [10]. Also, the TGI in assay [1] stood at 3.5 µM; in assay [2], 18.5 µM; in assay [3], 3.31 µM; in assay [4], 13 µM; in [5], 3.56 µM; in assay [6], 5.58 µM. Also, the TGI was found to be 3.6 µM in assay [7], 3.93 µM in assay [8], 2.95 µM in assay [9] and 3.3 µM in assay [10].
Take `CN[C@]12CC3(C=CC(=O)C=C3)O[C@@]1(Cc1ccc(OC)cc1)N(C)C(=O)N2`: the GI50 is 2.96 µM in assay [1]; 2.69 µM in assay [2]; 1.93 µM in [3]; 4.23 µM in assay [4]; 3.44 µM in [5]; 3.89 µM in assay [6]. Moreover, the GI50 is 3.74 µM in [7], 1.58 µM in [8], 1.65 µM in assay [9] and 2.03 µM in [10]. Besides, the TGI in assay [1] turned out to be 10.9 µM; in assay [2] it was 10.2 µM; in [3], 3.61 µM; in assay [4], 19.1 µM; in [5] it was 13.7 µM; in assay [6], 19.1 µM. The TGI in assay [7] is 13.6 µM; in assay [8], over 100 µM; in [9], 3.15 µM; in [10], 4.12 µM.
Regarding `COc1ccc(/C(C)=C(\c2ccc(Cl)cc2)c2ccc(OCCN3CCCC3)cc2)cc1F`, the GI50 in assay [1] is 4.27 µM; in assay [2], 3.43 µM; in assay [3] it was 3.44 µM; in assay [4], 3.73 µM; in assay [5], 2.1 µM; in assay [6], 3.21 µM. Besides, the GI50 in assay [7] is 2.92 µM; in [8], 0.944 µM; in [9], 4.1 µM; in assay [10], 3.39 µM. Moreover, the TGI in assay [1] turned out to be 8.4 µM; in [2] it was 6.69 µM; in [3] it was 6.94 µM; in assay [4], 7.27 µM; in assay [5], 5.29 µM; in assay [6] it was 6.62 µM. For the same molecule, the TGI was 6.25 µM in assay [7], 4.54 µM in assay [8], 7.78 µM in assay [9] and 7.02 µM in [10].
For the molecule `Cc1cccc2c(N=Nc3ccc(S(N)(=O)=O)cc3)c(O)[nH]c12`, the GI50 in assay [1], in assay [2], in assay [3], in assay [4], in assay [5] and in [6] was over 25 µM each time. The GI50 in assay [7], in [8], in assay [9] and in assay [10] was over 25 µM in each case. Further, the TGI in assay [1], in assay [2], in assay [3], in [4], in assay [5] and in [6] was over 25 µM each time. Moreover, the TGI in [7], in assay [8], in [9] and in assay [10] was over 25 µM throughout.
Regarding `O=c1cc(-c2ccc(Cl)cc2)[nH]c2ncccc12`, the TGI in assay [1], in [2], in [3], in assay [4], in assay [5] and in assay [6] was over 100 µM in each case. For the same molecule, the TGI in [7] was over 100 µM; in assay [8], 76.1 µM; in assay [9], over 100 µM; in assay [10] it was over 100 µM. The GI50 in [5] was 37.9 µM; in assay [7], 40.7 µM; in assay [9], 29 µM; in assay [10], 34.1 µM.
